Laboratory results as given in patent US10023559B2 (Hoffmann-La Roche Inc., priority 2014, dated 2018).

What was measured:
rat TAAR1 = rat TAAR1 (Rattus norvegicus (Rat), UniProt Q923Y9); assay: Radioligand binding assay on rat TAAR1; settings: read-out: Ki(μM) rat; rat TAAR1, HEK-293 membranes, second value of cell pair mouse/rat
Description: (§1) Membrane Preparation and Radioligand Binding.
HEK-293 cells stably expressing rat TAAR1 were maintained at 37° C. and 5% CO2 in DMEM high glucose medium, containing fetal calf serum (10%, heat inactivated for 30 min at 56° C.), penicillin/streptomycin (1%), and 375 μg/ml geneticin (Gibco). Cells were released from culture flasks using trypsin/EDTA, harvested, washed twice with ice-cold PBS (without Ca^2+ and Mg^2+), pelleted at 1,000 rpm for 5 min at 4° C., frozen and stored at −80° C. Frozen pellets were suspended in 20 ml HEPES-NaOH (20 mM, pH 7.4) containing 10 mM EDTA and homogenized with a Polytron (PT 6000, Kinematica) at 14,000 rpm for 20 s. The homogenate was centrifuged at 48,000×g for 30 min at 4° C. Subsequently, the supernatant was removed and discarded, and the pellet resuspended in 20 ml HEPES-NaOH (20 mM, pH 7.4) containing 0.1 mM EDTA using the Polytron (20 s at 14,000 rpm). This procedure was repeated and the final pellet resuspended in HEPES-NaOH containing 0.1 mM EDTA and homogenized using the Polytron. Typically, aliquots of 2 ml membrane portions were stored at −80° C. With each new membrane batch the dissociation constant (Kd) was determined via a saturation curve. […] Nonspecific binding was defined as the amount of [H]—(S)-4-[(ethyl-phenyl-amino)-methyl]-4,5-dihydro-oxazol-2-ylamine bound in the presence of 10 M unlabeled ligand. All compounds were tested at a broad range of concentrations (10 pM to 10 μM) in duplicates. […] The 96 deep well plates were incubated for 1 hr at 4° C. Incubations were terminated by rapid filtration through Unifilter-96 plates (Packard Instrument Company) and glass filters GF/C (Perkin Elmer) presoaked for 1 hr in polyethylenimine (0.3%) and washed 3 times with 1 ml of cold binding buffer. After addition of 45 μl of Microscint 40 (PerkinElmer) the Unifilter-96 plate was sealed and after 1 hr the radioactivity counted using a TopCount Microplate Scintillation Counter (Packard Instrument Company).

mouse TAAR1 = mouse TAAR1 (Mus musculus (Mouse), UniProt Q923Y8); assay: Radioligand binding assay on mouse TAAR1
Sequence of mouse TAAR1 (Q923Y8 whole entry): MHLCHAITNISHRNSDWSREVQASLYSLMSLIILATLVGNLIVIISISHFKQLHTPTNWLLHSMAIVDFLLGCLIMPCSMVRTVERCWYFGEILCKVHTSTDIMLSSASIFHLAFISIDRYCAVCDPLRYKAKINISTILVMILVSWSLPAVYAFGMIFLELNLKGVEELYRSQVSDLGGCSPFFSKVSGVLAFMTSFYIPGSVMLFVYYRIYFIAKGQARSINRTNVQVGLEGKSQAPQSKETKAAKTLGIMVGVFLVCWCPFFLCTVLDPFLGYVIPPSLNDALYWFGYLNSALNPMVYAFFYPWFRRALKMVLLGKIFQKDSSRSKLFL
Description: as §1
HEK-293 cells stably expressing mouse TAAR1 were maintained at 37° C. and 5% CO2 in DMEM high glucose medium, containing fetal calf serum (10%, heat inactivated for 30 min at 56° C.), penicillin/streptomycin (1%), and 375 μg/ml geneticin (Gibco). Cells were released from culture flasks using trypsin/EDTA, harvested, washed twice with ice-cold PBS (without Ca^2+ and Mg^2+), pelleted at 1,000 rpm for 5 min at 4° C., frozen and stored at −80° C. Frozen pellets were suspended in 20 ml HEPES-NaOH (20 mM, pH 7.4) containing 10 mM EDTA and homogenized with a Polytron (PT 6000, Kinematica) at 14,000 rpm for 20 s. The homogenate was centrifuged at 48,000×g for 30 min at 4° C. Subsequently, the supernatant was removed and discarded, and the pellet resuspended in 20 ml HEPES-NaOH (20 mM, pH 7.4) containing 0.1 mM EDTA using the Polytron (20 s at 14,000 rpm). This procedure was repeated and the final pellet resuspended in HEPES-NaOH containing 0.1 mM EDTA and homogenized using the Polytron. Typically, aliquots of 2 ml membrane portions were stored at −80° C. With each new membrane batch the dissociation constant (Kd) was determined via a saturation curve. […] Nonspecific binding was defined as the amount of ^3[H]—(S)-4-[(ethyl-phenyl-amino)-methyl]-4,5-dihydro-oxazol-2-ylamine bound in the presence of 10 M unlabeled ligand. All compounds were tested at a broad range of concentrations (10 pM to 10 μM) in duplicates. […] The 96 deep well plates were incubated for 1 hr at 4° C. Incubations were terminated by rapid filtration through Unifilter-96 plates (Packard Instrument Company) and glass filters GF/C (Perkin Elmer) presoaked for 1 hr in polyethylenimine (0.3%) and washed 3 times with 1 ml of cold binding buffer. After addition of 45 μl of Microscint 40 (PerkinElmer) the Unifilter-96 plate was sealed and after 1 hr the radioactivity counted using a TopCount Microplate Scintillation Counter (Packard Instrument Company).

Sequence of rat TAAR1 (Q923Y9 whole entry): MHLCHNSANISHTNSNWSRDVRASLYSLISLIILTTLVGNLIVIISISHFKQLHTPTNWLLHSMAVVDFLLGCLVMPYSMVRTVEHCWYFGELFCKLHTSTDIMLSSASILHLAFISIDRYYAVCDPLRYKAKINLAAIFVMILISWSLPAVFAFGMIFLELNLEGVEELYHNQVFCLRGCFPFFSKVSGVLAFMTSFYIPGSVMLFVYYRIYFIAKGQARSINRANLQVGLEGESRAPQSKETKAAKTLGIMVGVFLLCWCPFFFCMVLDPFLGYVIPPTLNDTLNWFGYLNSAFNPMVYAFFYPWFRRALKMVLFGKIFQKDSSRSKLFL

Compound | Ki (rat TAAR1) | Ki (mouse TAAR1)
CCc1n[nH]c(C(=O)Nc2ccc(OC3CNC3)cc2)c1Cl [Example 41, N-[4-(azetidin-3-yloxy)phenyl]-4-chloro-3-ethyl-1H-pyrazole-5-carboxamide] | 0.0392 µM | 3.5 nM
O=C(Nc1ccc(OC2CNC2)cc1)c1[nH]nc(C2CC2)c1F [Example 42, N-[4-(azetidin-3-yloxy)phenyl]-3-cyclopropyl-4-fluoro-1H-pyrazole-5-carboxamide] | 0.113 µM | 15 nM
Cn1nc(C(=O)Nc2ccc(OC3CNC3)cc2)c(Cl)c1C(F)(F)F [Example 43, N-[4-(azetidin-3-yloxy)phenyl]-4-chloro-1-methyl-5-(trifluoromethyl)pyrazole-3-carboxamide] | 0.0435 µM | 6.8 nM
O=C(Nc1ccc(SC2CNC2)cc1)c1cnc(C2CC2)nc1 [Example 44, N-[4-(azetidin-3-ylsulfanyl)phenyl]-2-cyclopropyl-pyrimidine-5-carboxamide] | 0.165 µM | 8.5 nM
O=C(Nc1ccc(SC2CNC2)cc1)c1cnc(C(F)(F)F)nc1 [Example 45, N-[4-(azetidin-3-ylsulfanyl)phenyl]-2-(trifluoromethyl)pyrimidine-5-carboxamide] | 0.129 µM | 35.5 nM
FC1(Cc2ccccc2)CNC1 [Example 46, 3-benzyl-3-fluoro-azetidine] | 0.552 µM | 1990 nM
CCc1n[nH]c(C(=O)Nc2ccc(OC3CNC3)cc2)c1Br [Example 47, N-[4-(azetidin-3-yloxy)phenyl]-4-bromo-3-ethyl-1H-pyrazole-5-carboxamide] | 0.0468 µM | 3.9 nM
Cc1[nH]nc(C(=O)Nc2ccc(OC3CNC3)cc2)c1Br [Example 48, N-[4-(azetidin-3-yloxy)phenyl]-4-bromo-3-methyl-1H-pyrazole-5-carboxamide] | 0.0943 µM | 14.3 nM
FC(F)(c1ccc(Br)cc1)C1CNC1 [Example 49, 3-[(4-bromophenyl)-difluoro-methyl]azetidine] | 0.291 µM | 1390 nM
Brc1ccc(C=C2CNC2)cc1 [Example 50, 3-[(4-bromophenyl)methylene]azetidine] | 0.0998 µM | 793 nM
O=C(Nc1ccc(C(F)(F)C2CNC2)cc1)c1ccc(Cl)cc1 [Example 51, N-[4-[azetidin-3-yl(difluoro)methyl]phenyl]-4-chloro-benzamide] | 0.0515 µM | 1.1 nM
O=C(Nc1ccc(CC2(F)CNC2)cc1)c1ccc(Cl)cc1 [Example 52, 4-chloro-N-[4-[(3-fluoroazetidin-3-yl)methyl]phenyl]benzamide] | 0.0035 µM | 0.9 nM
O=C(Nc1ccc(Cl)nc1)c1ccc(OC2CNC2)cc1Cl [Example 53, 4-(azetidin-3-yloxy)-2-chloro-N-(6-chloro-3-pyridyl)benzamide] | 2.43 µM | 55.2 nM
O=C(Nc1ccc(CC2(F)CNC2)cc1)c1ccc(Cl)nc1 [Example 54, 6-chloro-N-[4-[(3-fluoroazetidin-3-yl)methyl]phenyl]pyridine-3-carboxamide] | 0.0182 µM | 3 nM
O=C(Nc1ccc(CC2(F)CNC2)cc1)c1cnc(C(F)(F)F)nc1 [Example 55, N-[4-[(3-fluoroazetidin-3-yl)methyl]phenyl]-2-(trifluoromethyl)pyrimidine-5-carboxamide] | 0.0059 µM | 16.1 nM
O=C(Nc1ccc(CC2(F)CNC2)cc1)c1n[nH]c(C2CC2)c1Cl [Example 56, 4-chloro-3-cyclopropyl-N-[4-[(3-fluoroazetidin-3-yl)methyl]phenyl]-1H-pyrazole-5-carboxamide] | 0.0151 µM | 3.4 nM
O=C(Nc1ccc(CC2(F)CNC2)cc1)c1cnc(OCC(F)(F)F)cn1 [Example 57, N-[4-[(3-fluoroazetidin-3-yl)methyl]phenyl]-5-(2,2,2-trifluoroethoxy)pyrazine-2-carboxamide] | 0.0369 µM | 14.7 nM
O=C(Nc1ccc(C=C2CNC2)cc1)c1n[nH]c(C2CC2)c1Cl [Example 58, N-[4-(azetidin-3-ylidenemethyl)phenyl]-4-chloro-3-cyclopropyl-1H-pyrazole-5-carboxamide] | 0.0188 µM | 1.4 nM
O=C(Nc1ccc(C=C2CNC2)cc1)c1cnc(C(F)(F)F)nc1 [Example 59, N-[4-(azetidin-3-ylidenemethyl)phenyl]-2-(trifluoromethyl)pyrimidine-5-carboxamide] | 0.0079 µM | 8.9 nM
O=C(Nc1ccc(C=C2CNC2)cc1)c1ccnc(C(F)(F)F)c1 [Example 60, N-[4-(azetidin-3-ylidenemethyl)phenyl]-2-(trifluoromethyl)pyridine-4-carboxamide] | 0.0099 µM | 8.4 nM
O=C(Nc1ccc(C=C2CNC2)cc1)c1ccc(Cl)cc1 [Example 61, N-[4-(azetidin-3-ylidenemethyl)phenyl]-4-chloro-benzamide] | 0.246 µM | 121 nM

Compound | Ki (rat TAAR1) | Ki (mouse TAAR1)
FC(F)(F)c1nccc(Nc2ccc(C=C3CNC3)cc2)n1 [Example 62, N-[4-(azetidin-3-ylidenemethyl)phenyl]-2-(trifluoromethyl)pyrimidin-4-amine] | 0.0181 µM | 8.1 nM
FC(F)(F)c1cnc(Nc2ccc(C=C3CNC3)cc2)nc1 [Example 63, N-[4-(azetidin-3-ylidenemethyl)phenyl]-5-(trifluoromethyl)pyrimidin-2-amine] | 0.0385 µM | 61.4 nM
O=C(Nc1ccc(CC2CNC2)cc1)c1ccc(Cl)nc1 [Example 64, N-[4-(azetidin-3-ylmethyl)phenyl]-6-chloro-pyridine-3-carboxamide] | 0.0615 µM | 15 nM
O=C(Nc1ccc(C=C2CNC2)cc1)c1ccc(Cl)nc1 [Example 65, N-[4-(azetidin-3-ylidenemethyl)phenyl]-6-chloro-pyridine-3-carboxamide] | 0.023 µM | 2.6 nM
CCc1n[nH]c(C(=O)Nc2ccc(CC3(F)CNC3)cc2)c1Cl [Example 66, 4-chloro-3-ethyl-N-[4-[(3-fluoroazetidin-3-yl)methyl]phenyl]-1H-pyrazole-5-carboxamide] | 0.0824 µM | 323 nM
CCOc1ccc(C(=O)Nc2ccc(CC3(F)CNC3)cc2)nn1 [Example 67, 6-ethoxy-N-[4-[(3-fluoroazetidin-3-yl)methyl]phenyl]pyridazine-3-carboxamide] | 0.0968 µM | 29.4 nM
COc1cc(C(=O)Nc2ccc(CC3(F)CNC3)cc2)nc(C(F)(F)F)n1 [Example 68, 6 N-[4-[(3-fluoroazetidin-3-yl)methyl]phenyl]-6-methoxy-2-(trifluoromethyl)pyrimidine-4-carboxamide] | 0.0071 µM | 6.4 nM
O=C(Nc1ccc(CC2(F)CNC2)cc1)c1cnc(OCC(F)(F)F)nc1 [Example 69, N-[4-[(3-fluoroazetidin-3-yl)methyl]phenyl]-2-(2,2,2-trifluoroethoxy)pyrimidine-5-carboxamide] | 0.0361 µM | 42.1 nM
O=C(Nc1ccc(CC2(F)CNC2)cc1)c1cnc(C(F)(F)F)cn1 [Example 70, N-[4-[(3-fluoroazetidin-3-yl)methyl]phenyl]-5-(trifluoromethyl)pyrazine-2-carboxamide] | 0.0099 µM | 6.9 nM
O=C(Nc1ccc(C[C@H]2CCN2)cc1)c1ccc(Cl)cc1 [Example 71, N-[4-[[(2S)-azetidin-2-yl]methyl]phenyl]-4-chloro-benzamide] | 0.0065 µM | 1 nM
O=C(Nc1ccc(C[C@@H]2CCN2)cc1)c1ccc(Cl)cc1 [Example 72, N-[4-[[(2R)-azetidin-2-yl]methyl]phenyl]-4-chloro-benzamide] | 0.0686 µM | 3.9 nM
COC1(Cc2ccc(NC(=O)c3ccc(Cl)nc3)cc2)CNC1 [Example 73, 6-chloro-N-[4-[(3-methoxyazetidin-3-yl)methyl]phenyl]pyridine-3-carboxamide] | 0.0543 µM | 13.6 nM
COC1(Cc2ccc(NC(=O)c3cnc(C(F)(F)F)nc3)cc2)CNC1 [Example 74, N-[4-[(3-methoxyazetidin-3-yl)methyl]phenyl]-2-(trifluoromethyl)pyrimidine-5-carboxamide] | 0.0417 µM | 52.9 nM
O=C(Nc1ccc(OC2CNC2)cc1)c1cnc(C(F)(F)F)cn1 [Example 75, N-[4-(azetidin-3-yloxy)phenyl]-5-(trifluoromethyl)pyrazine-2-carboxamide] | 0.0106 µM | 5.2 nM
CCOc1ccc(C(=O)Nc2ccc(OC3CNC3)cc2)nn1 [Example 76, N-[4-(azetidin-3-yloxy)phenyl]-6-ethoxy-pyridazine-3-carboxamide] | 0.167 µM | 54 nM
O=C(Nc1ccc(OC2CNC2)cc1)c1cnc(OCC(F)(F)F)cn1 [Example 77, N-[4-(azetidin-3-yloxy)phenyl]-5-(2,2,2-trifluoroethoxy)pyrazine-2-carboxamide] | 0.0187 µM | 4 nM
O=C(Nc1ccc(C[C@@H]2CCN2)cc1)c1cnc(C(F)(F)F)nc1 [Example 78, N-[4-[[(2R)-azetidin-2-yl]methyl]phenyl]-2-(trifluoromethyl)pyrimidine-5-carboxamide] | 0.269 µM | 29.3 nM
O=C(Nc1ccc(C[C@@H]2CCN2)cc1)c1ccc(Cl)nc1 [Example 79, N-[4-[[(2R)-azetidin-2-yl]methyl]phenyl]-6-chloro-pyridine-3-carboxamide] | 0.348 µM | 10 nM
O=C(Nc1ccc(C[C@H]2CCN2)cc1)c1cnc(C(F)(F)F)nc1 [Example 80, N-[4-[[(2S)-azetidin-2-yl]methyl]phenyl]-2-(trifluoromethyl)pyrimidine-5-carboxamide] | 0.026 µM | 27.2 nM
O=C(Nc1ccc(C[C@H]2CCN2)cc1)c1ccc(Cl)nc1 [Example 81, N-[4-[[(2S)-azetidin-2-yl]methyl]phenyl]-6-chloro-pyridine-3-carboxamide] | 0.0202 µM | 4.1 nM
